Assay results: patent US20180104240A1, “AMELIORATION OF RADIATION-INDUCED COGNITIVE DYSFUNCTION” (NEURALSTEM, INC., priority 2016, published 2018)

Key:
Assay type in all cases: in vivo, rat
[1] = tested on: proliferating (BrdU+) cells present in the hippocampal dentate gyrus; assay: Neurogenesis: BrdU and BrdU/NeuN immunohistochemical labeling after head-only irradiation; details: irradiated rats, 30 mg/kg oral, 30 days
Method: (§1) Ten (10) week old Long Evans (LE) rats (Crl:LE, Strain Code: 006; Charles River) were divided randomly into three groups (n=16/group):
(§2) Radiation recipients having administered drug (IRR+NSI-189) received the compound of formula (2) wherein R^1=amyl as the phosphate salt by oral gavage. Drug was administered at 30 mg/kg (amount based exclusive of phosphate) and 27 Gy head-only fractionated radiation administered as in the IRR group. Rats in this group were administered NSI-189 in sterile vehicle (normal saline) as a 1× solution (15 mg/ml) starting 24 hours after the final dose of radiation and daily thereafter for 30 days. Sterile gavage needles with protected tips were used and the drug administered for less than a minute.
For IRR and IRR+NSI-189, rats were anesthetized [2.5% (vol/vol) isoflurane/oxygen], placed ventrally on the treatment table (X-RAD 320 irradiator; Precision X-Ray) without restraint, and positioned under a collimated (1.0 cm^2 diameter) beam for head-only radiation delivered at a dose rate of 1.0 Gy/min. Fractionation of 27 Gy was delivered over 3 separate doses of […] that were administered 48 hours apart. […]
Remaining animals that were not used for Golgi-Cox staining (n=12/group) were given a barbiturate overdose and were perfused/fixated using 4% paraformaldehyde and tissue removed. Tissue was analyzed by immunohistochemistry.

Long Evans (LE) rats [2] = assay: Object in Place (OiP) spontaneous exploration task after head-only irradiation
Excerpt: as §1
(§3) Controls (Con) received oral gavage (vehicle only) and sham radiation.
(§4) Radiation recipients with no drug (IRR) administered oral gavage (vehicle only) and 27 Gy head-only fractionated radiation.
as §2, with “minute. […]” for “minute.”
(§5) Rats were subjected to cognitive testing using spontaneous exploration tasks outlined below 1 week after termination of oral gavage (5 weeks post irradiation) over the course of 3 weeks. […] All data were collected using Noldus Ethovision v8.5 and later hand scored by a technician blind to the treatment groups. […]

Long Evans (LE) rats [3] = assay: Temporal Order (TO) spontaneous exploration task after head-only irradiation
Excerpt: as §1, §3, §4
as §2, with “minute. […]” for “minute.”
as §5

Long Evans (LE) rats [4] = assay: Novel Place Recognition (NPR) spontaneous exploration task after head-only irradiation
Excerpt: as §1, §3, §4
as §2, with “minute. […]” for “minute.”
as §5

Long Evans (LE) rats [5] = assay: Novel Object Recognition (NOR) spontaneous exploration task after head-only irradiation
Excerpt: as §1, §3, §4
as §2, with “minute. […]” for “minute.”
as §5

[6] = IRR lower than IRR+NSI-189 (P<0.05), 30 mg/kg oral, 30 days, 27 Gy

## CC(C)CCNc1ncccc1C(=O)N1CCN(Cc2ccccc2)CC1 [NSI-189]
[1]; dual immunohistochemical labeling
  yield of BrdU+/NeuN+ cells (mature neurons) in the hippocampal dentate gyrus: returned the yield of BrdU^+/NeuN^+ cells to pre-irradiation levels
[1]; radiation alone gave significant (P<0.05) reduction
  number of proliferating (BrdU+) cells in the hippocampal dentate gyrus: returned to pre-irradiation levels
Long Evans (LE) rats [2]; [6]
  OiP exploration ratio of IRR+NSI-189 compared with Con (statistics, in words): showed no significant differences
Long Evans (LE) rats [2]; rats, 27 Gy head-only fractionated radiation, 30 mg/kg oral gavage daily for 30 days
  Exploration Ratio mean (OiP): mean = 64.60
Long Evans (LE) rats [3]; 30 mg/kg oral, 30 days, 27 Gy
  TO exploration ratio of IRR+NSI-189 compared with Con (statistics, in words): did not differ statistically
Long Evans (LE) rats [3]; rats, 27 Gy head-only fractionated radiation, 30 mg/kg oral gavage daily for 30 days, object sets 3 hours apart, test after additional 1 hour
  Exploration Ratio mean (TO): mean = 67.95
Long Evans (LE) rats [4]; [6]
  NPR exploration ratio of IRR+NSI-189 compared with Con (statistics, in words): did not differ significantly from Con
Long Evans (LE) rats [4]; rats, 27 Gy head-only fractionated radiation, 30 mg/kg oral gavage daily for 30 days starting 24 hours after final radiation dose, tested 5 weeks post irradiation, 1 hour retention
  Exploration Ratio mean (NPR): mean = 60.69
Long Evans (LE) rats [5]; IRR lower than IRR+NSI-189 (P<0.01), 30 mg/kg oral, 30 days, 27 Gy
  NOR exploration ratio of IRR+NSI-189 compared with Con (statistics, in words): statistically indistinguishable
Long Evans (LE) rats [5]; rats, 27 Gy head-only fractionated radiation, 30 mg/kg oral gavage daily for 30 days, 5 min retention interval
  Exploration Ratio mean (NOR): mean = 71.28
